Test results as given in patent US11844768B2, “Terameprocol and nordihydroguaiaretic acid (NDGA) derivatives as coronavirus anti-viral agents” (Erimos Pharmaceuticals, LLC, priority 2021, dated 2023).
Structures can show the parent of a compound that is named as a salt. Where two headings read alike, the source gives them in different places.

Experiments:
[1] = test system: NL63-infected LLC-MK2 cells; test: LDH release cytotoxicity assay on NL63-infected LLC-MK2 cells; format: cell-based, rhesus monkey; details: five days
Protocol: With reference to FIG. 2 (Example 2), the exposure time of TMP on NL63-infected LLC-MK2 cells was measured to determine if long-term exposure to TMP could result in cell cytotoxicity. Cytotoxicity to the host cells can be caused by viral infection, which causes cell lysis, or by toxicity of test compounds to host cells. Cytotoxicity is measured by the release of lactate dehydrogenase (LDH), a cellular housekeeping enzyme, and its conversion of a colored substrate in the final reaction. Cells that die or lyse release LDH into the extracellular milieu; thus, the more LDH that is released by dying cells, the higher the LDH reading.
LLC-MK2 cells were inoculated with NL63 as provided in Example 1. The cells were tested for cytotoxicity through the release of lactate dehydrogenase (LDH), the latter of which was measured and quantified with an LDH assay multiplate reader. The cytotoxicity assay was performed three times and values for each treatment group and controls were averaged across assays, as show in FIGS. 2 and 3.

[2] = test system: SARS-CoV-2-infected Vero E6 cells; test: Cell cytotoxicity (cell lysis / plaques, monoclonal antibody) of SARS-CoV-2-infected Vero E6 cells; format: cell-based, African green monkey; details: 48 hours; for cell cytotoxicity (cell lysis): FIG. 5
Protocol: With reference to FIG. 5 (Example 3), Vero E6 were infected with SARS-CoV-2 virus, treated with 0.2 μM, 1.0 μM, 5.0 μM, 20 μM, and 80 μM of TMP, and tested for cell cytotoxicity using monoclonal antibodies after 48 hours. Infected Vero E6 cells without treatment were used as a negative control and infected Vero E6 cells treated with CM were used as a positive control. Here, the cells were tested for cytotoxicity via the formation of plaques identified with a monoclonal antibody.
(§1) Vero E6 African green monkey kidney epithelial cells were cultured as host cells for the SARS-CoV-2 coronavirus in 96-well cell culture plates. 500-1500 units of SARS-CoV-2 virus in Eagle's minimal essential medium (EMEM) with 10% Fetal Bovine Serum (FBS), L-glutamine, and Na-pyruvate phosphate buffered saline was introduced to the Vero E6 cell culture wells as described in Ogando et al., Journal of General Virology (2020) (available at biorxiv.org/content/10.1101/2020.04.20.049924v1). […] Plaques were identified using a plaque assay with the mouse monoclonal antibody J2 (Ogando et al., supra). Viral RNA was also isolated from the media supernatant and virus copy number was determined by RT-PCR for estimation of virus copy number following treatment.
Stock solutions of TMP were prepared by dissolving TMP in 100% DMSO at 50 mM with warming at 70° C. for 3 hours. TMP was added to the SARS-CoV-2-infected Vero E6 cells in the following concentrations: 0.2 μM, 1 μM, 5 μM, 20 μM, and 80 μM. Untreated infected Vero E6 cells and infected Vero E6 treated with CM were used as negative and positive controls, respectively. 48 hours following treatment with TMP, 400 μL of supernatant was collected from each plate well and viral RNA (no cellular RNA was collected) and virus copy number were measured from the extracted DNA by the ORIG3N RT-PCR test for the 1 μM, 5 μM, and 20 μM TMP-treatment wells as well as for the negative and positive controls. Separately, cell lysis was measured for all five TMP-treatment wells as well as for the negative and positive controls. The assay was repeated two additional times. FIGS. 4A-4C show the mean±SD of the number of copies of SARS-CoV-2 RNA measured from the cell supernatant for the three assay runs of the Vero E6 cells.

[3] = test system: SARS-CoV-2; format: cell-based; details: 48 hours, Calu-3, FIG. 6
[4] = test system: SARS-CoV-2; format: cell-based
[5] = test system: SARS-CoV-2-infected Calu-3 cells; test: Cell cytotoxicity (plaques, monoclonal antibody) of SARS-CoV-2-infected Calu-3 cells; format: cell-based, human; details: 48 hours, Calu-3, FIG. 6
Protocol: With reference to FIG. 6 (Example 4), the TMP-treatment protocol for the Vero E6 cells was repeated with Calu-3 cells (human non-small-cell lung cancer cells) infected with SARS-CoV-2. Infected Calu-3 cells without treatment were used as a negative control and infected Calu-3 cells treated with CM were used as a positive control. A monoclonal antibody was used to identify cell cytotoxicity.
as §1, with “Calu-3 human non-small-cell lung cancer” for “Vero E6 African green monkey kidney epithelial”, “supra.” for “Journal of General Virology (2020) (available at biorxiv.org/content/10.1101/2020.04.20.049924v1).”
Stock solutions of TMP were prepared by dissolving TMP in 100% DMSO at 50 mM with warming at 70° C. for 3 hours. TMP was added to the SARS-CoV-2-infected Vero E6 cells in the following concentrations: 5 μM, 20 μM, and 40 μM. Untreated infected Vero E6 cells and infected Vero E6 treated with CM were used as negative and positive controls, respectively. 48 hours following treatment with TMP, 400 μL of supernatant was collected from each plate well and viral RNA (no cellular RNA was collected) and virus copy number were measured determined from the extracted DNA by the ORIG3N RT-PCR test. The assay was repeated two additional times.

[6] = test system: HCoV-NL63; details: 48 hours; for cell toxicity resulting from the TMP treatment: LLC-MK2 cells

CN(C)C(=O)COC(=O)Cc1ccc(OC(=O)c2ccc(NC(=N)N)cc2)cc1 [CM, camostat mesylate, reference compound]
cell toxicity (LDH release) ([1]; CM positive control, FIG. 2): no cell toxicity
cell cytotoxicity (cell lysis) ([2]; CM positive control): no appreciable cytotoxic effects
viral replication ([3]; CM control): almost zero viral replication

COc1ccc(C[C@@H](C)[C@@H](C)Cc2ccc(OC)c(OC)c2)cc1OC [TMP, Tetra-O-methyl NDGA]
cell lysis (LDH release) ([1]; 0.2 μM TMP, FIG. 3): 1-2%
cell lysis (LDH release) ([1]; 5 μM TMP, FIG. 2): 10%
cell lysis (LDH release) ([1]; 5 μM TMP, FIG. 3): ~20%
cell lysis (LDH release) ([1]; 20 μM TMP, FIG. 2): 20-30%
cell lysis (LDH release), observation ([1]; 80 μM TMP, FIG. 2): cells separating from the plate
cell lysis (LDH release) ([1]; increased TMP concentration (between 0.2 and 5 μM; FIG. 3 series 0.2, 1, 5 μM)): approximately 8%
viral activity ([4]; 1 μM TMP, 48 hours, FIGS. 4B and 4C): increase in viral activity
viral replication ([4]; 5 μM TMP, 48 hours, FIGS. 4B and 4C): zero viral replication
viral replication ([4]; 20 μM TMP, 48 hours, FIG. 4A): almost zero viral replication
viral replication ([4]; 20 μM TMP, 48 hours, FIGS. 4B and 4C): reduction in viral replication comparable to the CM-treated positive control
dose response of viral replication ([4]; FIG. 4A, 48 hours, Vero E6): linear dose response
optimal TMP treatment range ([4]; SARS-CoV-2-infected Vero E6 in vitro, FIGS. 4A-4C): 5 µM
cell cytotoxicity (cell lysis) ([2]; 0.2 μM TMP): no appreciable cytotoxic effects
cell cytotoxicity (cell lysis) ([2]; 1.0 μM TMP): no appreciable cytotoxic effects
cell cytotoxicity (cell lysis) ([2]; 5 μM TMP): no appreciable cytotoxic effects
cell cytotoxicity (cell lysis) ([2]; 20 μM TMP): reduced in comparison to the 80 μM treatment
cell toxicity resulting from the TMP treatment ([2]; 20 μM TMP, FIGS. 4B and 4C runs): no discernable cell toxicity
cell cytotoxicity (cell lysis) ([2]; 80 μM TMP): high percentage of cell lysis
reduction in the mean number of copies of SARS-CoV-2 compared to the negative control ([3]; 5 μM TMP): 25%
viral replication ([3]; 20 μM TMP): almost zero viral replication
viral replication ([3]; 40 μM TMP): almost zero viral replication
cell cytotoxicity ([5]; 5 μM TMP): non-detectable cytotoxicity
cell cytotoxicity ([5]; 20 μM TMP): non-detectable cytotoxicity
cell cytotoxicity ([5]; 40 μM TMP): only slightly increased cytotoxicity
viral activity ([6]; 0.2 μM TMP, FIG. 1): partial reduction in viral activity
viral RNA copy number (mean+standard deviation) ([6]; 0.2 μM TMP, NL63-infected LLC-MK2 cells, FIG. 1, P=0.004 versus negative control): 50,882+2,296 copies
viral activity ([6]; 1 μM TMP, FIG. 1): almost no viral activity
cell toxicity resulting from the TMP treatment ([6]; 1 μM TMP): no discernable cell toxicity
viral activity ([6]; 5 μM TMP, FIG. 1): almost no viral activity
cell toxicity resulting from the TMP treatment ([6]; 5 μM TMP): no discernable cell toxicity
dose response of viral RNA ([6]; 0.2, 1 and 5 μM TMP, FIG. 1): linear response that plateaued at 1 μM TMP
